Data published in patent US20210300924A1, “5-[6-[[3-(4,5,6,7-TETRAHYDROPYRAZOLO[4,3-C]PYRIDIN-1-YL)AZETIDIN-1-YL]METHYL]MORPHOLIN-4-YL]QUINOLINE-8-CARBONITRILE DERIVATIVES AND SIMILAR COMPOUNDS AS TLR7-9 ANTAGONISTS FOR TREATING SYSTEMIC LUPUS ERYTHEMATOSUS” (Hoffmann-La Roche Inc., priority 2018, published 2021).

Tests used:
hERG channel = target: T1, hERG channel (Homo sapiens, UniProt Q12809); test: hERG channel inhibition assay (patch-clamp, CHOhERG cells); format: cell-based; details: for IC50 / IC20: CHOhERG cells, whole-cell patch-clamp; for IC20: human, CHO cells stably expressing hERG (CHOhERG cells); for hERG IC20/TLR7 IC50 / hERG IC20/TLR8 IC50 / hERG IC20/TLR9 IC50: safety ratio, >30 suggests sufficient window
T1 construct: expressed in transfected cells; host or cells: CHO (Chinese hamster ovary), CHOhERG
Experimental: hERG Channel Inhibition Assay:
The hERG K^+ channels were cloned in humans and stably expressed in a CHO (Chinese hamster ovary) cell line. CHOhERG cells were used for patch-clamp (voltage-clamp, whole-cell) experiments. Cells were stimulated by a voltage pattern to activate hERG channels and conduct hERG currents (rapid delayed outward rectifier potassium current of the hERG channel). After the cells were stabilized for a few minutes, the amplitude and kinetics of IKhERG were recorded at a stimulation frequency of 0.1 Hz (6 bpm). Thereafter, the test compound was added to the preparation at increasing concentrations. For each concentration, an attempt was made to reach a steady-state effect, usually, this was achieved within 3-10 min at which time the next highest concentration was applied. The amplitude and kinetics of IKhERG are recorded in each concentration of the drug which were compared to the control values (taken as 100%). (references: Redfern W S, Carlsson L, Davis A S, Lynch W G, MacKenzie I, Palethorpe S, Siegl P K, Strang I, Sullivan A T, Wallis R, Camm A J, Hammond T G. 2003; Relationships between preclinical cardiac electrophysiology, clinical QT interval prolongation and torsade de pointes for a broad range of drugs: evidence for a provisional safety margin in drug development. Cardiovasc. Res. 58:32-45, Sanguinetti MC, Tristani-Firouzi M. 2006; hERG potassium channels and cardiac arrhythmia. Nature 440:463-469, Webster R, Leishman D, Walker D. 2002; Towards a drug concentration effect relationship for QT prolongation and torsades de pointes. Curr. Opin. Drug Discov. Devel. 5:116-26).

TLR9 = target: T2, TLR9 (Homo sapiens, UniProt Q9NR96); test: Human PBMC cell-based assay; parameters: endogenous in cells; host or cells: human PBMC from healthy donor whole blood; details: CpG ODN 2216 stimulation, overnight, cytokine readout, read-out: hPBMC/TLR9 IC50
T2 sequence (Q9NR96 26-1032): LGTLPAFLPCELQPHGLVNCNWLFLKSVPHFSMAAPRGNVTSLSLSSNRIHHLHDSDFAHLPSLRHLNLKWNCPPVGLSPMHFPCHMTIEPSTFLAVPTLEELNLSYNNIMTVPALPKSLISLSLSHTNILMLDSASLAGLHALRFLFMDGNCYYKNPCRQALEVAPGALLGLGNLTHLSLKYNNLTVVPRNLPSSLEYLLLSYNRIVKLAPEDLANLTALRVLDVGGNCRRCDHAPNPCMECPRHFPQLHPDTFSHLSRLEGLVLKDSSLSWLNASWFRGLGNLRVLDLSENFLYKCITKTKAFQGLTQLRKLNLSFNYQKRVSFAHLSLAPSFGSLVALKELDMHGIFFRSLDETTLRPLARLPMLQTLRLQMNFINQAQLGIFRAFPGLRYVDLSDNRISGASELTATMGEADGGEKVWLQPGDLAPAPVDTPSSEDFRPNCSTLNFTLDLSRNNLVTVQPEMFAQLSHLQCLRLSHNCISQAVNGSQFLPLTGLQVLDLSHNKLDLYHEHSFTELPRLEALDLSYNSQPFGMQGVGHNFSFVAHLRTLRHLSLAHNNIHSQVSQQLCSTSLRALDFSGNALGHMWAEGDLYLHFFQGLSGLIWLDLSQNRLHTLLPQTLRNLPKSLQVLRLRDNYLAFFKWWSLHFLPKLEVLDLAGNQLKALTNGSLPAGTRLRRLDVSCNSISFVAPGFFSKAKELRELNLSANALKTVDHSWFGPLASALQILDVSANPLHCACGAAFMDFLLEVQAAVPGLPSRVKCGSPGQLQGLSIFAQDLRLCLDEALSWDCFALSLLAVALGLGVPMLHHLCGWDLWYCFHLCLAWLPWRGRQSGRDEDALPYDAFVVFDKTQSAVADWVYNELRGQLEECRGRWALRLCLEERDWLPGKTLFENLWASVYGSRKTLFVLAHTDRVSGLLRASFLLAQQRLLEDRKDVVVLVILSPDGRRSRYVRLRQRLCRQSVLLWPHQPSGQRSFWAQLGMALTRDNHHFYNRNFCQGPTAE
Text: Human PBMC Cell-Based Assay
Unlike the HEK reporter cell lines, human peripheral blood mononuclear cell (PBMC) represents primary human immune cells in blood mainly consisting of lymphocytes, monocytes, and dendritic cells. These cells express TLR7, TLR8, or TLR9, and therefore are natural responders to respective ligand stimulation. Upon activation of these TLRs, PBMCs secrete similar cytokines and chemokines in vitro and in vivo, and therefore the in vitro potency of a TLR7/8/9 antagonist in human PBMC is readily translatable to its pharmacodynamics response in vivo.
Human peripheral blood mononuclear cells (PBMC) were isolated from freshly-drawn lithium-heparinized (Lithium Heparin Plus blood Collection tube, BD Vacutainer®) healthy donor whole blood by density gradient (Ficoll-Paque™ PLUS, GE Healthcare life Sciences). Briefly, […] was diluted with 25 mL PBS (without Ca^2+, Mg^2+) in a 50 mL conical tube with porous barrier (Leucosep tube, Greiner bio-one), where 15.5 mL Ficoll-Paque was under laid after spinning. Tubes were centrifuged for 20 minutes at 800×g (1946 rpm) with the brake in the off position, and PBMC were collected from the buffy coat. Cells were then washed twice in PBS, and red blood cells were lysed by suspension in 2 mL (Red Blood Cell Lysis Buffer, Alfa Aesar) for 5-10 minutes at room temperature. After a final wash in PBS, PBMC were resuspended at a final concentration of 2×10^6 cells/mL in RPMI-1640 media with GlutaMAX™ (Gibco) supplemented with 10% Fetal Bovine Serum (Sigma) and plated at 150 μL/well (3×10^5 cells/well) in tissue culture treated round bottom 96-well plates (Corning Incorporated). Antagonist compounds (compounds of this invention) solubilized and serial diluted in 100% DMSO were added in duplicate to cells to yield a final concentration of 1% DMSO (v/v). PBMC were incubated with antagonist compounds for 30 minutes at 37° C., 5% CO2 before adding various TLR agonist reagents in 48 μL complete media per well as follows (final concentrations indicated): CpG ODN 2216 (InvivoGen) at […] for TLR9, ORN 06/LyoVec (InvivoGen) at 1 μg/mL for TLR8 and R848 (InvivoGen) at 1 μg/mL for TLR7 and TLR8. PBMC were incubated overnight at 37° C. with 5% CO2. Cell culture supernatants were collected, and levels of various human cytokines were assessed by Luminex assay (ProcartaPlex™ Multiplex Immunoassay, Invitrogen) or ELISA procedure according to the manufacturer's recommended protocol (eBioscience, ThermoFisher Scientific). Viability of the cells was also checked with Cell Viability Assay (CellTiter Glo® Luminescent Cell Viability Assay, Promega).

T1 sequence (Q12809 whole entry): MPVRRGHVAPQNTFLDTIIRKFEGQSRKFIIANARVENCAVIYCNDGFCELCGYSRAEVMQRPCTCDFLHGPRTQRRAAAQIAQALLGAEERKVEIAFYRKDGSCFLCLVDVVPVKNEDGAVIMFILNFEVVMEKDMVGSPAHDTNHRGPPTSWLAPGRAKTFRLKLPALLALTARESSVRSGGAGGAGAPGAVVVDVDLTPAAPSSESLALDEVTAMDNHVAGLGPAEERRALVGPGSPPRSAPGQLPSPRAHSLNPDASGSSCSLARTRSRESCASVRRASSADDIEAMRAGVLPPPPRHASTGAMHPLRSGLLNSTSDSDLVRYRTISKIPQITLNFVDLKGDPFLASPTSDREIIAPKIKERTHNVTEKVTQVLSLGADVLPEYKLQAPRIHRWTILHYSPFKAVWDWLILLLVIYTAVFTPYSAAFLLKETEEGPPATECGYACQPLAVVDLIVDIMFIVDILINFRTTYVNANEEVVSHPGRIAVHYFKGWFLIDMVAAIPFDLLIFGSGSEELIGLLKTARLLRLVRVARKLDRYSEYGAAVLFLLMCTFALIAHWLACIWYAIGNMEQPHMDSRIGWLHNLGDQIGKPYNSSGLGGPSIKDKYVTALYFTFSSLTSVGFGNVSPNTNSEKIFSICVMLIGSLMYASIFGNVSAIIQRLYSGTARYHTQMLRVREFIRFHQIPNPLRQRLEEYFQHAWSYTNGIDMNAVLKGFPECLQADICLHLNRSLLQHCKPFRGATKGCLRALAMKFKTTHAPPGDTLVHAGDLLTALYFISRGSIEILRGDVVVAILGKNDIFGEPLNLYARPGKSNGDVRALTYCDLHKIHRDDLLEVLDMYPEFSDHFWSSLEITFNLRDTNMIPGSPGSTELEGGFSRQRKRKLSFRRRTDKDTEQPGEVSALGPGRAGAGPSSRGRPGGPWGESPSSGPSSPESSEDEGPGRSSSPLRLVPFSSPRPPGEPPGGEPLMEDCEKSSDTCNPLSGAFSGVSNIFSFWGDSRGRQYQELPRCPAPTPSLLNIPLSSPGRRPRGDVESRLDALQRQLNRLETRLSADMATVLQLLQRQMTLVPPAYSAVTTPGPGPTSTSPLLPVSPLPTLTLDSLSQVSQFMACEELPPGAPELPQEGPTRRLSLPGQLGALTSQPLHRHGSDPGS

Row | Compound | IC50 (TLR9) | IC50 (hERG channel) | IC20 (hERG channel) | hERG IC20/TLR7 IC50 (hERG channel) | hERG IC20/TLR8 IC50 (hERG channel) | hERG IC20/TLR9 IC50 (hERG channel)
1 | C[C@@H]1CN(c2ccc(C#N)c3ncccc23)C[C@H](CN2CC(n3cc4c(n3)CN[C@@H](C)C4)C2)O1 (single isomer, unassigned) [Example 29] | 115 nM | > 20000 nM | > 10000 nM | >1265.8 | >877.2 | >138.3
2 | C[C@@H]1Cc2cn(C3CN(C[C@H]4CN(c5ccc(C#N)c6ncccc56)C[C@@H](C)O4)C3)nc2CN1 (single isomer, unassigned) [Example 30] | 162 nM | > 20000 nM | > 10000 nM | >2083.3 | >735.3 | >175.7
3 | C[C@@H]1CN(c2ccc(C#N)c3ncccc23)C[C@H](CN2CC(n3ncc4c3CNCC4)C2)O1 [Example 3, 5-[(2R,6S)-2-methyl-6-[[3-(4,5,6,7-tetrahydropyrazolo[3,4-c]pyridin-1-yl)azetidin-1-yl]methyl]morpholin-4-yl]quinoline-8-carbonitrile] | 118 nM | > 20000 nM | > 10000 nM | >2901.3 | >1739.2 | >194.9
4 | C[C@@H]1CN(c2ccc(C#N)c3ncccc23)C[C@H](CN2CC(n3cc4c(n3)CNCC4)C2)O1 [Example 4, 5-[(2R,6S)-2-methyl-6-[[3-(4,5,6,7-tetrahydropyrazolo[3,4-c]pyridin-2-yl)azetidin-1-yl]methyl]morpholin-4-yl]quinoline-8-carbonitrile] | 198 nM | > 20000 nM | > 10000 nM | >1136.4 | >1162.8 | >314.5
5 | C[C@@H]1CN(c2ccc(C#N)c3ncccc23)C[C@H](CN2CC(n3cc4c(n3)CN(C)CC4)C2)O1 [Example 5, 5-[(2R,6S)-2-methyl-6-[[3-(6-methyl-5,7-dihydro-4H-pyrazolo[3,4-c]pyridin-2-yl)azetidin-1-yl]methyl]morpholin-4-yl]quinoline-8-carbonitrile] | 318 nM | > 20000 nM | > 10000 nM | >2857.1 | >1653.6 | >73.1
6 | Cc1c2c(nn1C1CN(C[C@H]3CN(c4ccc(C#N)c5ncccc45)C[C@@H](C)O3)C1)CCNC2 [Example 13, 5-[(2R,6S)-2-methyl-6-[[3-(3-methyl-4,5,6,7-tetrahydropyrazolo[4,3-c]pyridin-2-yl)azetidin-1-yl]methyl]morpholin-4-yl]quinoline-8-carbonitrile] | 119 nM | > 20000 nM | > 10000 nM | >694.4 | >222.2 | >84.5
7 | C[C@@H]1CN(c2ccc(C#N)c3ncccc23)C[C@H](CN2CC(n3cc4c(n3)CCN[C@H]4C)C2)O1 [Example 23, 5-[(2R,6S)-2-methyl-6-[[3-[(4S)-4-methyl-4,5,6,7-tetrahydropyrazolo[4,3-c]pyridin-2-yl]azetidin-1-yl]methyl]morpholin-4-yl]quinoline-8-carbonitrile] | 143 nM | – | – | – | – | –

Stronger by IC50 (TLR9), values ahead:

Row | IC50 (TLR9) | Compound | IC50 (hERG channel) | IC20 (hERG channel) | hERG IC20/TLR7 IC50 (hERG channel) | hERG IC20/TLR8 IC50 (hERG channel) | hERG IC20/TLR9 IC50 (hERG channel)
8 | 72 nM | C[C@@H]1CN(c2ccc(C#N)c3ncccc23)C[C@H](CN2CC(n3cc4c(n3)[C@@H](C)NCC4)C2)O1 (single isomer, unassigned) [Example 33] | > 20000 nM | > 10000 nM | >1369.9 | >763.4 | >291.5
9 | 92 nM | Cc1nn(C2CN(C[C@H]3CN(c4ccc(C#N)c5ncccc45)C[C@@H](C)O3)C2)c2c1CNCC2 [Example 12, 5-[(2R,6S)-2-methyl-6-[[3-(3-methyl-4,5,6,7-tetrahydropyrazolo[4,3-c]pyridin-1-yl)azetidin-1-yl]methyl]morpholin-4-yl]quinoline-8-carbonitrile] | > 20000 nM | > 10000 nM | >666.7 | >226.8 | >127.6
10 | 84 nM | C[C@@H]1Cc2c(cnn2C2CN(C[C@H]3CN(c4ccc(C#N)c5ncccc45)C[C@@H](C)O3)C2)CN1 [Example 16, 5-[(2R,6S)-2-methyl-6-[[3-[(6R)-6-methyl-4,5,6,7-tetrahydropyrazolo[4,3-c]pyridin-1-yl]azetidin-1-yl]methyl]morpholin-4-yl]quinoline-8-carbonitrile] | > 20000 nM | > 10000 nM | >2381.0 | >641.0 | >129.0
